Patent US10124004B2, “Pyrido[3,4-d]pyrimidine derivative and pharmaceutically acceptable salt thereof” (Teijin Pharma Limited, priority 2015, dated 2018)

Legend:
CDK2/cyclin A2 = biological target: T1, CDK2/cyclin A2 (Homo sapiens, UniProt P24941); assay: Human CDK2/cyclin A2 inhibitory activity (QS S Assist CDK2/Cyclin A2_FP Kit, IMAP fluorescence polarization); type: biochemical; settings: 50% inhibitory concentration against CDK2/cyclin A2, given as class symbol
T1 construct: purchased Carna Biosciences, Inc. QS S Assist CDK2/Cyclin A2_FP Kit
Outline: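 Kinase activity read as fluorescence polarization (485/535 nm) after phosphorylated fluorescent substrate binds IMAP reagent (30 min, RT, dark). Enzyme (2.5 ng/well) reacted 60 min at RT with ATP/substrate/metal in HEPES pH 7.4 buffer with Tween 20 and DTT; no-enzyme wells define 0% activity; IC50 by curve fit.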

CDK4/cyclin D3 = biological target: T2, CDK4/cyclin D3 (Homo sapiens, UniProt P11802); assay: Human CDK4/cyclin D3 inhibitory activity (QS S Assist CDK4/Cyclin D3_FP Kit, IMAP fluorescence polarization); type: biochemical; settings: 50% inhibitory concentration against CDK4/cyclin D3, given as class symbol
T2 construct: purchased Carna Biosciences, Inc. QS S Assist CDK4/Cyclin D3_FP Kit
T2 sequence (P11802 whole entry): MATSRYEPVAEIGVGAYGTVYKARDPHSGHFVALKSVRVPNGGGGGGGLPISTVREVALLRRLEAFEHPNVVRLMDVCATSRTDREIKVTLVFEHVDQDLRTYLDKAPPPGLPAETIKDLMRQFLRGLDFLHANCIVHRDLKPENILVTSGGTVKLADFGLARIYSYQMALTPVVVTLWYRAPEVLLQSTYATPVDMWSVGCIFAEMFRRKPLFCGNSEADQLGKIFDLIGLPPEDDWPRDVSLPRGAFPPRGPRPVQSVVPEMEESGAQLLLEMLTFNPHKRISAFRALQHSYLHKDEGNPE
T2 sequence (P30281 whole entry partner): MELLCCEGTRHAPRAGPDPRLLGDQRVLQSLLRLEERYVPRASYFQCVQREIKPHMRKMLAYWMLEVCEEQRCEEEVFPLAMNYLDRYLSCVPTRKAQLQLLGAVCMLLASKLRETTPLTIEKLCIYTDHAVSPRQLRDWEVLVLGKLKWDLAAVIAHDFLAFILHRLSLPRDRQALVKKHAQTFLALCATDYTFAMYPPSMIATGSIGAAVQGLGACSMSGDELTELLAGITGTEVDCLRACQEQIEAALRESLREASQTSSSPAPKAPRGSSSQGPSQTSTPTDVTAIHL
Outline: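 IMAP fluorescence-polarization kinase assay with kit ATP/substrate/metal mix and 12.5 to 25 ng/well enzyme in 20 mM HEPES pH 7.4, 0.01% Tween20, 2 mM DTT. Reaction ran 45 min at room temperature, then binding reagent was added for 30 min in the dark. IC50 was taken from dose-response fits of percent inhibition.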

SMILES | IC50 (CDK2/cyclin A2) [nM] | IC50 (CDK4/cyclin D3) [nM]
CCNc1nc([C@@H](C)O)cc2cnc(Nc3ccc(N4CCNCC4)c(C)n3)nc12 [Compound 1091] | ≥ 100 | < 10
CCCNc1nc([C@@H](C)O)cc2cnc(Nc3ccc(N4CCNCC4)c(C)n3)nc12 [Compound 1092] | ≥ 100 | < 10
Cc1nc(Nc2ncc3cc([C@@H](C)O)nc(NCC(C)C)c3n2)ccc1N1CCNCC1 [Compound 1093] | ≥ 100 | < 10
Cc1nc(Nc2ncc3cc([C@@H](C)O)nc(NC4CCC4)c3n2)ccc1N1CCNCC1 [Compound 1094] | ≥ 100 | < 10
Cc1nc(Nc2ncc3cc([C@@H](C)O)nc(NCC4CC4)c3n2)ccc1N1CCNCC1 [Compound 1095] | ≥ 100 | < 10
CCNc1nc(C(F)F)cc2cnc(Nc3ccc(CN4CCC(C(=O)O)CC4)cn3)nc12 [Compound 1096] | ≥ 100 | 10 to 100
CCCNc1nc(C(F)F)cc2cnc(Nc3ccc(CN4CCC(C(=O)O)CC4)cn3)nc12 [Compound 1097] | ≥ 100 | 10 to 100
CC(C)CNc1nc(C(F)F)cc2cnc(Nc3ccc(CN4CCC(C(=O)O)CC4)cn3)nc12 [Compound 1098] | ≥ 100 | 10 to 100
O=C(O)C1CCN(Cc2ccc(Nc3ncc4cc(C(F)F)nc(NC5CCC5)c4n3)nc2)CC1 [Compound 1099] | ≥ 100 | < 10
O=C(O)C1CCN(Cc2ccc(Nc3ncc4cc(C(F)F)nc(NCC5CC5)c4n3)nc2)CC1 [Compound 1100] | ≥ 100 | 10 to 100
C[C@@H](O)c1cc2cnc(Nc3ccc(N4CCN(C)CC4)nn3)nc2c(NC(C)(C)CO)n1 [Compound 1101] | ≥ 100 | < 10
CCCNc1nc([C@@H](C)O)cc2cnc(Nc3ccc(N4CCN(C)CC4)nn3)nc12 [Compound 1102] | ≥ 100 | < 10
CCNc1nc([C@@H](C)O)cc2cnc(Nc3ccc(CN4CCN(C)CC4)cn3)nc12 [Compound 1103] | ≥ 100 | < 10
CCCNc1nc([C@@H](C)O)cc2cnc(Nc3ccc(CN4CCN(C)CC4)cn3)nc12 [Compound 1104] | ≥ 100 | < 10
COC[C@@H](C)Nc1nc([C@@H](C)O)cc2cnc(Nc3ccc(CN4CCN(C)CC4)cn3)nc12 [Compound 1105] | ≥ 100 | < 10
C[C@@H](O)c1cc2cnc(Nc3ccc(CN4CCN(C)CC4)cn3)nc2c(NC(C)(C)CO)n1 [Compound 1106] | ≥ 100 | < 10

SMILES | IC50 (CDK2/cyclin A2) [nM] | IC50 (CDK4/cyclin D3) [nM]
CCNc1nc(C2(C)COC2)cc2cnc(Nc3ccc(CN4CCNCC4)cn3)nc12 [Compound 1107] | ≥ 100 | < 10
CC1(c2cc3cnc(Nc4ccc(CN5CCNCC5)cn4)nc3c(NC3CCC3)n2)COC1 [Compound 1108] | ≥ 100 | < 10
CC1(c2cc3cnc(Nc4ccc(CN5CCNCC5)cn4)nc3c(NCC3CC3)n2)COC1 [Compound 1109] | ≥ 100 | < 10
CC1(c2cc3cnc(Nc4ccc(CN5CCNCC5)cn4)nc3c(NCC3CC(F)(F)C3)n2)COC1 [Compound 1110] | ≥ 100 | < 10
CCCNc1nc([C@@H](C)OC)cc2cnc(Nc3ccc4c(n3)CCN(C(=O)CO)C4)nc12 [Compound 1111] | ≥ 100 | 10 to 100
CCNc1nc([C@@H](C)OC)cc2cnc(Nc3ccc4c(n3)CCN(C(=O)CO)C4)nc12 [Compound 1112] | ≥ 100 | 10 to 100
CO[C@H](C)c1cc2cnc(Nc3ccc4c(n3)CCN(C(=O)CO)C4)nc2c(N[C@H]2CCCOC2)n1 [Compound 1113] | ≥ 100 | 10 to 100
O=C(CO)N1CCc2nc(Nc3ncc4cc(C5CCOC5)nc(N[C@H]5CCCOC5)c4n3)ccc2C1 (stereo partly shown) [Compound 1114] | ≥ 100 | < 10
CC1(c2cc3cnc(Nc4ccc5c(n4)CCN(C(=O)CO)C5)nc3c(N[C@H]3CCCOC3)n2)COC1 [Compound 1115] | ≥ 100 | < 10
CCCNc1nc([C@@H](C)O)cc2cnc(Nc3ccc4c(n3)CCN(C(=O)CO)C4)nc12 [Compound 1116] | ≥ 100 | < 10
CCNc1nc([C@@H](C)O)cc2cnc(Nc3ccc4c(n3)CCN(C(=O)CO)C4)nc12 [Compound 1117] | ≥ 100 | 10 to 100
C[C@@H](O)c1cc2cnc(Nc3ccc4c(n3)CCN(C(=O)CO)C4)nc2c(N[C@H]2CCCOC2)n1 [Compound 1118] | ≥ 100 | < 10
CCCNc1nc([C@@H](C)OC)cc2cnc(Nc3ccc4c(n3)CCN(CCO)C4)nc12 [Compound 1119] | ≥ 100 | < 10
CCNc1nc([C@@H](C)OC)cc2cnc(Nc3ccc4c(n3)CCN(CCO)C4)nc12 [Compound 1120] | ≥ 100 | 10 to 100
CO[C@H](C)c1cc2cnc(Nc3ccc4c(n3)CCN(CCO)C4)nc2c(N[C@H]2CCCOC2)n1 [Compound 1121] | ≥ 100 | < 10

Now from value to compound:

IC50 (CDK2/cyclin A2) [nM] | IC50 (CDK4/cyclin D3) [nM] | SMILES
≥ 100 | < 10 | CCCNc1nc([C@@H](C)O)cc2cnc(Nc3ccc(O[C@@H]4CCN(CCO)C4)cn3)nc12 [Compound 1059]
≥ 100 | < 10 | CCNc1nc([C@@H](C)O)cc2cnc(Nc3ccc(CN4CCC(O)CC4)cn3)nc12 [Compound 1060]
≥ 100 | < 10 | CCCCNc1nc([C@@H](C)O)cc2cnc(Nc3ccc(CN4CCC(O)CC4)cn3)nc12 [Compound 1061]
≥ 100 | < 10 | C[C@@H](O)c1cc2cnc(Nc3ccc(CN4CCC(O)CC4)cn3)nc2c(NC2CCC2)n1 [Compound 1063]
≥ 100 | < 10 | C[C@@H](O)c1cc2cnc(Nc3ccc(CN4CCC(O)CC4)cn3)nc2c(N[C@H]2CC[C@H](O)CC2)n1 [Compound 1064]
≥ 100 | < 10 | C[C@@H](O)c1cc2cnc(Nc3ccc(CN4CCC(O)CC4)cn3)nc2c(NCC2CCOCC2)n1 [Compound 1065]
≥ 100 | 10 to 100 | CCC(OC)c1cc2cnc(Nc3ccc(CN4CCNCC4)cn3)nc2c(NC(C)C)n1 (stereo not shown) [Compound 1066]
≥ 100 | < 10 | CCC(OC)c1cc2cnc(Nc3ccc(CN4CCNCC4)cn3)nc2c(NC(C)C)n1 (stereo not shown) [Compound 1067]
≥ 100 | ≥ 100 | CCC(OC)c1cc2cnc(Nc3ccc(N4CCNCC4)nn3)nc2c(NC(C)C)n1 (stereo not shown) [Compound 1068]
≥ 100 | 10 to 100 | CCC(OC)c1cc2cnc(Nc3ccc(N4CCNCC4)nn3)nc2c(NC(C)C)n1 (stereo not shown) [Compound 1069]
≥ 100 | < 10 | C[C@@H](O)c1cc2cnc(Nc3ccc(CN4CCN(CCO)CC4)cn3)nc2c(NC2CCCC2)n1 [Compound 1070]
≥ 100 | < 10 | C[C@@H](O)c1cc2cnc(Nc3ccc(CN4CCN(CCO)CC4)cn3)nc2c(NC(C)(C)C)n1 [Compound 1071]
≥ 100 | < 10 | CCNc1nc([C@@H](C)O)cc2cnc(Nc3ccc(CN4CCN(CCCO)CC4)cn3)nc12 [Compound 1072]
≥ 100 | < 10 | CCNc1nc([C@@H](C)O)cc2cnc(Nc3ccc(CN4CCN(CC(C)(C)O)CC4)cn3)nc12 [Compound 1073]
≥ 100 | < 10 | C[C@@H](O)c1cc2cnc(Nc3ccc(CN4CCN(CCO)CC4)cn3)nc2c(NCCCF)n1 [Compound 1074]
≥ 100 | < 10 | CCCNc1nc([C@@H](C)O)cc2cnc(Nc3ccc(CN4CCN(C[C@H](C)O)CC4)cn3)nc12 [Compound 1075]
≥ 100 | < 10 | CCCNc1nc([C@@H](C)O)cc2cnc(Nc3ccc(CN4CCN(CCO)C[C@H]4C)cn3)nc12 [Compound 1076]
≥ 100 | < 10 | CCCNc1nc([C@@H](C)O)cc2cnc(Nc3ccc(CN4CCN(CCO)C[C@@H]4C)cn3)nc12 [Compound 1077]
≥ 100 | < 10 | C[C@@H](O)c1cc2cnc(Nc3ccc(N4CCNCC4=O)cn3)nc2c(NC2CCCC2)n1 [Compound 1078]
≥ 100 | < 10 | C[C@@H](O)c1cc2cnc(Nc3ccc(N4CCNCC4=O)cn3)nc2c(NCCCF)n1 [Compound 1079]
≥ 100 | < 10 | CCNc1nc([C@@H](C)O)cc2cnc(Nc3ccc(CN4CCCC(O)C4)cn3)nc12 (stereo partly shown) [Compound 1080]
≥ 100 | < 10 | CCCNc1nc([C@@H](C)O)cc2cnc(Nc3ccc(CN4CCCC(O)C4)cn3)nc12 (stereo partly shown) [Compound 1081]
≥ 100 | < 10 | C[C@@H](O)c1cc2cnc(Nc3ccc(CN4CCCC(O)C4)cn3)nc2c(NCC2CC2)n1 (stereo partly shown) [Compound 1083]
≥ 100 | < 10 | C[C@@H](O)c1cc2cnc(Nc3ccc(CN4CCCC(O)C4)cn3)nc2c(NC2CCC2)n1 (stereo partly shown) [Compound 1084]
≥ 100 | < 10 | CC(C)CNc1nc([C@@H](C)O)cc2cnc(Nc3ccc(CN4CCCC(O)C4)cn3)nc12 (stereo partly shown) [Compound 1085]
≥ 100 | < 10 | C[C@@H](O)c1cc2cnc(Nc3ccc(CN4CCCC(O)C4)cn3)nc2c(N[C@H]2CC[C@H](O)CC2)n1 (stereo partly shown) [Compound 1086]
≥ 100 | < 10 | C[C@@H](O)c1cc2cnc(Nc3ccc(CN4CCCC(O)C4)cn3)nc2c(NCC2CCOCC2)n1 (stereo partly shown) [Compound 1087]
≥ 100 | < 10 | CC(C)Nc1nc([C@@H](C)O)cc2cnc(Nc3ccc(N4CCN(C(=O)CO)CC4)cn3)nc12 [Compound 1090]
